From US6340755B1, “5H-Pyrano[2,3-d: 6,5-d']dipyrimidine derivatives having an antibacterial, antiviral and immuno-modulating activity” (Natural Drug Sciences LLC, priority 2000, dated 2002)

Assays:
[1] = system: herpes simplex type I (VPG-I/Leningrad/248/88); test: Activity on herpes simplex virus: cytopathic action of the virus on Vero cells; format: cell-based; details: 36 hours; for number of cells in 100 fields (unchanged cells): cell control 12000
Protocol: (§1) The antiviral activity was studied relative to the virus herpes simplex type I (VPG-I/Leningrad/248/88) by a standard method. The virus was grown on a reinoculated Vero cell culture obtained from the cell culture bank of the Institute of Cytology of the Russian Academy of Sciences.
(§2) To cells grown on medium RPMI-1640 with 10% calf serum and placed in the wells of a 96-well plate, the virus was added to give a final concentration of 10 particles/ml and the claimed compounds dissolved in DMSO were added to give a final concentrations of 100, 10, and 1 mg/l. We used 5 individual wells for every concentration tested. The plate was incubated for 60 min at 38° C. in a CO2 incubator. After incubation the virus was removed and new medium was added that contained the claimed compounds in the test concentrations.
The results were evaluated according to the existence of a cytopathic action of the virus on the cells after 36 hours of incubation at 38° C. in the CO2 incubator.
The following controls were used in the experiment:
3. Control of antiviral activity of an antiviral preparation—acylcovir.
To access the cytopathic effect of the virus, we counted the number of unchanged cells in 100 fields formed by a specialized grid on the eyepiece of the inversion microscope.

[2] = system: primary culture of human lymphocytes; test: Interferon-inducing activity in primary culture of human lymphocytes (immunoenzyme IFN determination); format: cell-based; design: unit of the concentration uncertain; details: 24 hours of incubation
Protocol: Interferon synthesis induction by the claimed preparations was conducted on a primary culture of human lymphocytes (the cells in the human body are the main producers of interferon). To obtain a culture of the lymphocytes we used fresh blood (12 hours after collection) from healthy […] (not from the second group).
The lymphocyte concentration was determined after staining with methyl blue and the number of cells in the Goryaev chamber was calculated. […] The final concentration of the lymphocytes in the induction mixture was 3·10^6 cells/ml. The following controls were processed in parallel with the test samples:
The control and the experimental samples were incubated for 24 hours at 37° C. Following incubation the samples were centrifuged at 2000 g to settle out the cellular elements and the INF-containing supernatant was taken from the samples and analyzed for INF content. The cell residue was resuspended in the same volume of nutrient medium, stained with a vital dye—trypan blue—and the number of cells in the Goryaev chamber was calculated (as described above) to determine the cytotoxic activity of the preparations.
For the quantitative determination of INF in the control and experimental samples we used the ProCon IF2 Plus immunoenzyme test system sold by TOO Proteinovyi Kontur. To determine the quantity of interferon s in the sample we used a solid-phase immunoenzyme method utilizing horseradish peroxidase as the enzyme indicator. The activity of the bound peroxidase was measured using an automated photometer at a wavelength of 450 nm for the microplanchets with a microprocessor. […] On the basis of the results obtained we plotted a calibration curve that allowed us to obtain data expressed in International Units (IU) from the microprocessor of the automated photometer. The results of the analysis are expressed in IU of activity of INF per ml in the given induction system containing 3·10^6 lymphocytes/ml. Every experimental and control point was studied in 4 parallel runs.
The results obtained were analyzed statistically using the t-test and the confidence interval at p=0.05 was calculated. Analysis of the convergence of the results of the parallel tests were performed.

[3] = system: C. trachomatis D323; test: Activity on Chlamydia trachomatis in McCoy and L929 cell cultures; format: cell-based; details: 48 hours; for number of cells in 100 fields (unchanged cells): cell control 8000, infected cell control 6400
Protocol: The antimicrobial activity of the claimed compounds was studied on C. trachomatis […]-a standard strain from the collection of the Department of Microbiology of the Pavlov St.-Petersburg State University. This strain was isolated from a patient with […] urethritis. […] In the work reported here we used McCoy and L929 cell cultures obtained from the Institute of Cytology of the Russian Academy of Sciences. The cells were grown in flasks of neutral glass in RPMI-1640 medium with an addition of 10% fetal calf serum. The experiment was placed in glass (toxicity-free) flat-bottomed flasks and covered with glass. The cells were introduced into the medium in a final concentration of 1·10 cells/ml. […] The sample was centrifuged at 2400 g for 60 min at room temperature and incubated at 37° C. for 2 hours. […] A parallel series of samples was run using medium without the cycloheximide in order to avoid its influence on the test substances. The samples were incubated for 48 hours in a CO2 incubator. […] The results were evaluated from the detection of chlamydia cytoplasmatic inclusion by an immunoenzyme method (MicroTrac Chlamydia trachomatis Direct Specimen Test) and from chlamydia antigens using CylaMonoScreen (Russian-British Joint Venture, 66 Regent's Park Road, London NW 1 7SX).

[4] = Acute toxicity (LD50) in mice; format: in vivo; details: non-linebred white, mouse, in vivo, iv; mice 18-20 g; by mouth or intravenously; observation period 14 days
Protocol: Acute toxicity was determined on non-linebred white mice weighing 18-20 g. Emulsions of certain of the claimed compounds were prepared in a range of concentrations: 1500, 700, 500, 100, 20 and 5 μg/kg. Five animals were used to study each specific concentration of a compound. The preparation was administered once a day by mouth or intravenously. The observation period was 14 days On days 1, 8 and 15 the animals in every group were weighed. For a control we used animals who received the emulsion without the test compounds.
All animals, both that died in the course of the experiment and those that survived to the end of the experiment, were opened to allow macroscopic examination of internal organs.
In the course of the experiment no loss of weight was observed or any change in behavior or external appearance, nor was there any loss of life. Based on the results of the macroscopic examination of internal organs of the animals in the test and the control groups, no pathological findings were made (Table 7).

[5] = system: herpes simplex type I (VPG-I/Leningrad/248/88); test: Activity on herpes simplex virus: cytopathic action of the virus on Vero cells; format: cell-based; details: 50 mg/l, 36 hours
[6] = system: Vero cell culture; test: Control of compounds (toxicity of compounds) in the herpes experiment; format: cell-based; details: Vero cells
Protocol: as §1
as §2, with “the claimed compounds dissolved in DMSO were added to give a final concentrations of 100, 10, and 1 mg/l.” left out
4. Control of compounds (toxicity of compounds).

[7] = system: McCoy and L929 cell cultures; test: Control of the test compounds on toxicity relative to cell cultures in the chlamydia experiment; format: cell-based
Protocol: In the work reported here we used McCoy and L929 cell cultures obtained from the Institute of Cytology of the Russian Academy of Sciences. The cells were grown in flasks of neutral glass in RPMI-1640 medium with an addition of 10% fetal calf serum. The experiment was placed in glass (toxicity-free) flat-bottomed flasks and covered with glass. The cells were introduced into the medium in a final concentration of 1·10 cells/ml. After a monolayer was obtained, standard infectious doses of chlamydia that had been maintained in a frozen state at −70° C. were added to test tubes. […] The sample was centrifuged at 2400 g for 60 min at room temperature and incubated at 37° C. for 2 hours. […] A parallel series of samples was run using medium without the cycloheximide in order to avoid its influence on the test substances. The samples were incubated for 48 hours in a CO2 incubator.

| SMILES | percent protection of the cells against the virus compared to the cell culture control ([1]; 10 mg/l) [%] | number of cells in 100 fields (unchanged cells) ([1]; 10 mg/l) | percent protection of the cells against the virus compared to the cell culture control ([1]; 100 mg/l) [%] | number of cells in 100 fields (unchanged cells) ([1]; 100 mg/l) | Interferon-inducing activity of the drug; content of INF in induction mixture ([2]; 1 (unit uncertain)) [IU/3 · 10^4 lymp/ml] | Interferon-inducing activity of the drug; content of INF in induction mixture ([2]; 10 (unit uncertain)) [IU/3 · 10^4 lymp/ml] | Interferon-inducing activity of the drug; content of INF in induction mixture ([2]; 100 (unit uncertain)) [IU/3 · 10^4 lymp/ml] | percent protection of the cells against infection ([3]; 30 mg/l) [%] | number of cells in 100 fields (unchanged cells) ([3]; 30 mg/l) | percent protection of the cells against infection ([3]; 100 mg/l) [%] | number of cells in 100 fields (unchanged cells) ([3]; 100 mg/l) | LD50 at 14 days [4] [mg/kg] | percent protection of the cells against the virus compared to the cell culture control [5] [%] | number of cells in 100 fields (unchanged cells) ([5]; cell control 12000) | cytotoxicity of compound ([6]; 50 mg/l) | cytotoxicity of compound ([6]; 100 mg/l) | cytotoxicity of compound ([7]; 30 mg/l) | cytotoxicity of compound ([7]; 100 mg/l) |
| --- | --- | --- | --- | --- | --- | --- | --- | --- | --- | --- | --- | --- | --- | --- | --- | --- | --- | --- |
| Nc1nc2c(ncn2COCCO)c(=O)[nH]1 [Acyclovir, reference compound] | 80 | 9600 |  |  |  |  |  |  |  |  |  |  |  |  |  |  |  |  |
| O=[N+]([O-])c1ccc(C2c3c(O)nc(O)nc3Oc3nc(O)nc(O)c32)cc1 [I, 2,4,6,8-Tetrahydroxy-5-(p-nitrophenyl)-5H-pyrano[2,3-d:6,5-d′]dipyrimidine] | 60 | 7200 | 80 | 9600 | 8.0 ± 0.8 | 28.0 ± 1.5 | 80.0 ± 1.2 | 70 | 7520 | 80 | 7640 | 1600 | 70 | 8400 |  |  |  |  |
| Clc1nc(Cl)c2c(n1)Oc1nc(Cl)nc(Cl)c1C2c1ccccc1 [II, 5-Phenyl-2,4,6,8-tetrachloro-5H-pyrano[2,3-d:6,5-d′]dipyrimidine] |  |  |  |  | 2.0 ± 0.4 | 16.0 ± 0.8 | 40.0 ± 1.4 |  |  |  |  |  |  |  | Cytotoxic | Cytotoxic | cytotoxic | cytotoxic |
| Oc1nc(O)c2c(n1)Oc1nc(O)nc(O)c1C2c1ccc(I)cc1 [III] |  |  | 40 | 4800 | 56.5 ± 1.0 | 112.6 ± 2.0 | 243.2 ± 1.0 |  |  |  |  |  |  |  |  |  |  |  |
